For experiment [1], the system named is RAGE. Nature of the experiment: RAGE upregulation in THP-1 macrophages co-incubated with peptoid and low-dose LPS (confocal imaging). It counts as cell-based, human. As to conditions: 3 days. The procedure:
(§1) THP-1 monocytes were differentiated into macrophages through exposure to phorbol 12-myristate 13-acetate (PMA) for three days prior to experimentation 10. […] Upon differentiation, these cells were then incubated (3 days) with media containing JPT1a (50, 10, or 2 μM) alone or JPT1a (50, 10, or 2 μM) in the presence of low-dose (2 ng/mL) lipopolysaccharide (LPS) as a chronic pro-inflammatory stimulus 11. Treatment with 2 ng/mL LPS alone served as a positive control, while treatment with an equivalent volume of buffer diluted into media served as the vehicle. Cellular supernatant was harvested on day 3 12; these samples were immediately centrifuged at 1200 rpm for 10 min at 25° C. to remove any cells or debris. The top 80% of this volume was subsequently removed and stored at −80° C. for later assessment of cytokines via ELISA. Cells were fixed and stained for RAGE, phalloidin (cytoplasmic marker), and DAPI (nuclear marker) 13. Each channel was imaged with a Zeiss LSM 510 META Confocal Scanning Laser Microscope using a plan-neofluar 40×/1.3 oil DIC immersion objective; three of these multi-channel images were obtained from each slide in each experiment 14. All multi-channel images were converted to TIFF file format via ImageJ64 software for quantitative image analysis using a custom subroutine written in Matlab™ software to obtain the average RAGE expression per volume of cells, and the data generated was assessed for statistical significance using GraphPad Prism 7.0 software 15.
Images acquired via confocal microscopy were analyzed via custom MATLAB™ subroutine to determine the average quantity of RAGE present within a given volume of cells. Results within each experiment are normalized to the positive control (2 ng/mL LPS alone), indicated by the dashed line at 1. Significance relative to positive control is indicated as ** p<0.01. Error bars indicate SEM, n=4.
Images acquired via confocal microscopy were analyzed via custom MATLAB™ subroutine to determine the average quantity of RAGE present within a given volume of cells. Results within each experiment are normalized to the positive control (2 ng/mL LPS alone), indicated by the dashed line at 1.0. Error bars indicate SEM, n=2.

The test system of another experiment is IL-1β. The experiment can be described thus: IL-1β in supernatant of THP-1 macrophages co-incubated with peptoid and LPS (ELISA). Particulars: peptoid 50 μM with 2 ng/mL LPS, 3 days; vs LPS alone. It counts as cell-based, human. The procedure: as §1, with “The top 80% of this volume was subsequently removed and stored at −80° C. for later assessment of cytokines via ELISA. Cells were fixed and stained for RAGE, phalloidin (cytoplasmic marker), and DAPI (nuclear marker) 13. Each channel was imaged with a Zeiss LSM 510 META Confocal Scanning Laser Microscope using a plan-neofluar 40×/1.3 oil DIC immersion objective; three of these multi-channel images were obtained from each slide in each experiment 14.” left out
(§2) As shown in FIGS. 2B-2D, THP-1 macrophages were treated with JPT1a alone (white) or in the presence of a chronic low-dose (2 ng/mL) of LPS (grey), for 3 days prior to supernatant harvest and storage. Examination of the supernatant via ELISA determined the concentrations of (FIG. 2B) IL-1β, (FIG. 2C) IL-6, and (FIG. 2D) IL-8. […]

Another experiment has as its system IL-6. Nature of the experiment: IL-6 in supernatant of THP-1 macrophages co-incubated with peptoid and LPS (ELISA). It counts as cell-based, human. Particulars: 3 days, vs LPS alone. As for the experimental part: as §1, with “Each channel was imaged with a Zeiss LSM 510 META Confocal Scanning Laser Microscope using a plan-neofluar 40×/1.3 oil DIC immersion objective; three of these multi-channel images were obtained from each slide in each experiment 14.” left out
as §2
As shown in FIGS. 5B-5D, THP-1 macrophages were treated with JPT1 alone (white) or in the presence of a chronic low-dose (2 ng/mL) of LPS (grey), for 3 days prior to supernatant harvest and storage. Examination of the supernatant via ELISA determined the concentrations of (FIG. 5B) IL-1β, (FIG. 5C) IL-6, and (FIG. 5D) IL-8. […]
For orientation: In an ELISA, binding on a coated surface is turned into a signal by an enzyme label.

Experiment [2] deals with RAGE. Nature of the experiment: Aβ1-42 oligomer induced RAGE expression in THP1 macrophages (confocal imaging). It counts as cell-based, human. As to conditions: 3 days. As for the experimental part:
Aβ1-42 oligomers were prepared at 15 μM through the addition of 12 mM phosphate containing […] to DMSO-solubilized AP. After 15-minute incubation, oligomerization was halted and used to immediately prepare treatments of 10 nM Aβ1-42 oligomers alone (positive control) or in the presence of the peptoid at concentrations ranging from 1 μM to 25 μM. Treatments were applied to THP1 macrophages for 3 days prior to cell fixation and staining. Treatment with 10 nM Aβ1-42 oligomers alone served as a positive control, while treatment with an equivalent volume of buffer diluted into media served as the vehicle. Treatment with 15 μM JPT1a ensured that JPT1a alone had no effect. Cells were fixed and stained for RAGE, phalloidin (cytoplasmic marker), and DAPI (nuclear marker). […] All multi-channel images were converted to TIFF file format via ImageJ64 software for quantitative image analysis using a custom subroutine written in MATLAB™ software to obtain the average RAGE expression per volume of cells.
Treatment with an equivalent volume of buffer diluted into media served as the vehicle. Treatment with 25 μM JPT1a in the presence of vehicle assessed the effect of the peptoid alone (black). Images were analyzed via custom MATLAB™ subroutine to determine the average quantity of RAGE present within a given volume of cells. […]

Another experiment deals with T1, Aβ1-40 (Homo sapiens, UniProt P05067).
T1 construct: modulate Aβ1-40 aggregation
As to conditions: cited from earlier work.

Each structure is given as a SMILES string. Where a SMILES comes first, the peptide text is derived from it. [ ]: non-standard residue; d: D form. N(1S-Me-propyl)Gly = CC[C@H](C)NCC(=O)O; Nspe = C[C@H](NCC(=O)O)c1ccccc1; Nlys = NCCCCNCC(=O)O

T1 sequence (P05067 672-711 limits assumed): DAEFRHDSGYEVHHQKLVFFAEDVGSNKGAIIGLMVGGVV

Consider `CC[C@H](C)N(CC(=O)N(CC(=O)N(CC(=O)N(CC(=O)N(CC(=O)N(CC(=O)N(CC(N)=O)[C@@H](C)c1ccccc1)[C@@H](C)c1ccccc1)[C@@H](C)CC)[C@@H](C)c1ccccc1)[C@@H](C)c1ccccc1)[C@@H](C)CC)C(=O)CNCCCCN` [JPT1a] (H-[Nlys][N(1S-Me-propyl)Gly][N(1S-Me-propyl)Gly][Nspe][Nspe][N(1S-Me-propyl)Gly][Nspe][Nspe]-NH2), for which the “upregulation in RAGE expression in the presence of LPS” value with RAGE [1] (peptoid 50, 10 or 2 μM with 2 ng/mL LPS, normalized to LPS alone) is “reduced in a dose-dependent and significant manner”. In the experiment on RAGE [1] (peptoid alone (no LPS), relative to the control), the “expression of RAGE, peptoid alone” value is reported as “does not provoke significant response or upregulation”. In the experiment with IL-1β, the “LPS-induced production of IL-1β” value is reported as “significantly attenuates”. The “levels of LPS-induced IL-6” value in the experiment with IL-6 (peptoid 10 μM with 2 ng/mL LPS) is “significantly reduces”. For the same molecule, the “LPS-induced production of IL-6” value in the experiment on IL-6 (peptoid 50 μM with 2 ng/mL LPS) is listed as “significantly attenuates”. Moreover, the “expression of RAGE, JPT1a alone” value in the experiment on RAGE [2] (25 μM JPT1a in the presence of vehicle) was “does not provoke significant response or upregulation”. Besides, the “Aβ1-42 oligomer induced RAGE expression” value in the experiment with RAGE [2] (JPT1a 25, 10, 5 or 1 μM with 10 nM Aβ1-42 oligomers, fraction of positive control) is reported as “dose-dependent reduction”. On Aβ1-40, the Aβ1-40 aggregation result was “capacity to modulate Aβ1-40 aggregation”.

Values taken from patent US11197908B2, “Peptoids and methods for attenuating inflammatory response” (THE BOARD OF TRUSTEES OF THE UNIVERSITY OF ARKANSAS, priority 2018, dated 2021).
